Data as given in PMC10016038, “Enhanced Endosomal Signaling and Desensitization of GLP-1R vs GIPR in Pancreatic Beta Cells” (Endocrinology, 2023).
Entries after “also recorded” stand apart in the source; their conditions may differ.

Tests used:
SNAP-tagged human GIPR = assay: Colocalization with Rab5-Venus, SNAP-GIPR; assay type: cell-based; conditions: 100 nM GIP
Excerpt: To determine the intracellular destination of internalized GLP-1Rs/GIPRs more precisely, we performed concentration response bystander NanoBRET assays using C-terminal NanoLuc-fused SNAP-tagged GLP-1R vs GIPR and either KRAS-Venus (plasma membrane) or Rab5-Venus (early endosome) co-expressed transiently in INS-1 832/3 cells (Fig. 2).

SNAP-tagged human GLP-1R = SNAP-tagged human GLP-1R (Homo sapiens, UniProt P43220); assay: TR-FRET receptor clustering, SNAP-GLP-1R; assay type: cell-based; conditions: 100 nM, 37 °C, n = 4
SNAP-tagged human GLP-1R, sequence (P43220 24-463): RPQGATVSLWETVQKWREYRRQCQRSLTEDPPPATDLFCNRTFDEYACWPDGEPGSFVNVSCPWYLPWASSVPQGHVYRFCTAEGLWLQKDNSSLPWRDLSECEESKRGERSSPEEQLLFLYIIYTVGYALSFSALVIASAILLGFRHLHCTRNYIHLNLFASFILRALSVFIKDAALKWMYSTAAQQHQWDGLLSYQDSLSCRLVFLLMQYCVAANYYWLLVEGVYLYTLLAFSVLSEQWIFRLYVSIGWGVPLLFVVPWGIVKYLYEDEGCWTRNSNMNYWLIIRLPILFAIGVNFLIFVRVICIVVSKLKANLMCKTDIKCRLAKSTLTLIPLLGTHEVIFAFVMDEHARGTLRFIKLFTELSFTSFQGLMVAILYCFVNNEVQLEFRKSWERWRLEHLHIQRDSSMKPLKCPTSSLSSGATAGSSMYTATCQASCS

SNAP-GIPR = assay: Nb37 bystander NanoBiT, plasma membrane (CAAX), GIPR; assay type: cell-based, human; conditions: 30-minute AUC, n = 4
Excerpt: The Nb37 assay constructs were kindly provided by Prof. Asuka Inoue, Tohoku University, Japan. Nb37 (gene synthesized by GenScript with codon optimization) was C-terminally fused to SmBiT with a 15 amino acid flexible linker ([…]), and the resulting construct referred to as Nb37-SmBiT. The C-terminal KRAS CAAX motif ([…]) was N-terminally fused with LgBiT (LgBiT-CAAX). The Endofin FYVE domain (amino acid region Gln739-Lys806) was C-terminally fused with LgBiT (Endofin-LgBiT). Gαs (human, short isoform), Gβ1 (human), Gγ2 (human), and RIC8B (human, isoform 2) plasmids were inserted into pcDNA3.1 or pCAGGS expression plasmid vectors. INS-1 832/3 GLP-1R KO or GIPR KO cells were seeded in 6-well plates and co-transfected with 0.1 μg SNAP-GLP-1R or SNAP-GIPR, 0.5 μg Gαs, Gβ1, and Gγ2, 0.1 μg RIC8B, 0.1 μg CAAX-LgBiT or 0.5 μg Endofin-LgBiT with 0.1 μg or 0.5 μg Nb37-SmBiT, respectively, with 0.8 µg pcDNA3.1 added to the former to equalize DNA content.
All NanoBiT and NanoBRET readings were obtained in a Flexstation 3 plate reader. […] Readings were normalized to well baseline and then to average vehicle-induced signal to establish the agonist-induced effect. AUCs from response curves were calculated for each agonist concentration and fitted to four-parameter curves using Prism 9 (GraphPad). […]

[1] = system: calcium response in purified WT mouse islets; assay: Calcium assay, WT mouse islets; assay type: cell-based; conditions: Cal-520 AM; 100 nM; n = 4
Procedure: Nondiabetic mice of both sexes were used for islet isolation. Briefly, pancreata were infused via the common bile duct with RPMI-1640 medium containing 1 mg/mL collagenase from Clostridium histolyticum (Nordmark Biochemicals), dissected, and incubated in a water bath at 37 °C for 10 minutes. Islets were subsequently washed and purified using a Histopaque gradient (Histopaque-1119, 11191, Sigma-Aldrich, and Histopaque-1083, 10831, Sigma-Aldrich). Isolated islets were allowed to recover overnight at 37 °C in 5% CO2 in RPMI-1640 supplemented with 10% FBS and 1% penicillin/streptomycin. […]
Imaging of INS-1 832/3 cells or whole-islet Ca^2+ dynamics was performed as follows: cells or Matrigel-encased islets from individual animals were loaded with the Ca^2+ responsive dye Cal-520 AM (AAT Bioquest), pre-incubated for 1 hour in KRBH G6, and imaged in MatTek glass bottom dishes every 6 second at 488 nm using a Nikon Eclipse Ti microscope with an ORCA-Flash 4.0 camera (Hamamatsu) and Metamorph software (Molecular Devices) while maintained at 37 °C on a heated stage. Raw fluorescence intensity traces from cell-occupied areas or islet ROIs were extracted using Fiji. Responses were plotted relative to the average fluorescence intensity during the 6 mM glucose baseline period, before agonist addition. […]

INS-1 832/3 WT cells = assay: Insulin secretion assay, INS-1 832/3 WT cells; assay type: cell-based, rat; conditions: 100 nM, 11 mM glucose; WT n = 3
Procedure: At the end of the treatments, the supernatant containing the secreted insulin was collected, centrifuged at 1000g for 3 minutes, and transferred to a fresh tube. To determine total insulin content, cells were lysed using KRBH buffer + 1% w/v BSA + 1% v/v Triton X-100 (Sigma). The lysates were sonicated 3 × 10 seconds in a water bath sonicator and centrifuged at 10 000g for 10 minutes, and the supernatants collected. The samples were stored at −20 °C until the insulin concentration was determined using an Insulin Ultra-Sensitive HTRF Assay kit (62IN2PEG, Cisbio, Codolet, France) according to the manufacturer's instructions.
Figure 7. Functional analysis of GLP-1R vs GIPR signaling in beta cells. […] Data are mean ± SEM, compared by paired t tests; *P < .05; ns, nonsignificant.

GLP-1R-NanoLuc = assay: Rab5-Venus bystander NanoBRET (early endosome), GLP-1R; assay type: cell-based; conditions: n = 5
Excerpt: GLP-1R-NanoLuc was generated in house by polymerase chain reaction (PCR) cloning of the NanoLuciferase sequence from pcDNA3.1-ccdB-NanoLuc (a gift from Prof. Mikko Taipale; Addgene plasmid # 87067) onto the C-terminus end of the SNAP-GLP-1R vector (CisBio), followed by site-directed mutagenesis of the GLP-1R stop codon. GIPR-NanoLuc was subsequently cloned in house by exchanging the GLP-1R for the GIPR in the GLP-1R-NanoLuc construct. KRAS- and Rab5-Venus plasmids were a gift from Prof. Kevin Pfleger, University of Western Australia. The INS-1 832/3 GLP-1R KO and GIPR KO cells were seeded in 12-well plates and co-transfected with 0.2 µg KRAS-Venus and 0.1 µg GLP-1R- or GIPR-NanoLuc, respectively, or 0.5 µg Rab5-Venus and 0.1 µg GLP-1R- or GIPR-NanoLuc, respectively.
All NanoBiT and NanoBRET readings were obtained in a Flexstation 3 plate reader. Briefly, 24 hours after transfection, cells were detached, resuspended in NanoGlo Live Cell Reagent (Promega) with furimazine (1:20 dilution) and seeded into white 96-well half-area plates. […] Readings were normalized to well baseline and then to average vehicle-induced signal to establish the agonist-induced effect. AUCs from response curves were calculated for each agonist concentration and fitted to four-parameter curves using Prism 9 (GraphPad).
Figure 2. Endosomal vs plasma membrane localization of GLP-1R compared with GIPR in beta cells. […]

Row | Substance | Localization of the fraction of internalized GIPRs (SNAP-tagged human GIPR) | SNAP-GIPR localization (SNAP-tagged human GIPR) | GLP-1R clustering (SNAP-tagged human GLP-1R) | Recruitment of Nb37 to active GIPRs vs GLP-1Rs within the plasma membrane (SNAP-GIPR) | Calcium influx, GIP vs GLP-1, primary islets [1] | Insulin secretion, GIP compared with GLP-1 (INS-1 832/3 WT cells) | Agonist-mediated redistribution of GLP-1R to Rab5-positive early endosomes (GLP-1R-NanoLuc)
1 | GIP(1-42) | also localized to Rab5-Venus-positive endosomes | a sizable amount of SNAP-GIPR was still present at the plasma membrane | not detectable | no significant differences | significant increase | nonsignificant tendency toward improvement; also recorded: tendency toward increased | 
2 | GLP-1(7-36)NH2 |  |  |  |  |  |  | clearly detectable
